Measurements taken from BindingDB's records for patent US10117944 (Madrigal Pharmaceuticals, 2018).

Biological target: Receptor tyrosine-protein kinase erbB-2 (Homo sapiens, UniProt P04626)
Experiment: HER2 Degradation Assay with BT-474 Cell Line
Description: HER2 has emerged as a key target for anticancer drugs due to its intrinsic involvement in the phosphatidylinositol-3-kinase-Akt/protein kinase B (PI3 K-Akt) and the mitogen-activated protein kinase (MAPK) pathways, both of which suppress apoptosis and promote tumor cell survival, gene transcription, angiogenesis, cellular proliferation, migration, mitosis, and differentiation. The degradation of HER2 is a measure of efficacy of anticancer therapeutics that target Hsp90. Accordingly, the SDC-TRAP molecules of the invention that comprise a binding moiety that binds Hsp90 were tested in the following HER2 degradation assay.BT-474 cells (human breast cancer cell line ATCC HTB-20) were obtained from ATCC and seeded into 12-well tissue culture plates at 0.2x106/1.8 mL/well. […] Each test compound was titrated in 4-fold dilutions from 5 μM to 78 nM with DMSO and 200 μL of the titration was added to each well of the cell plate. The DMSO final concentration was 0.2%. Cells were incubated overnight at 37° C. in 5% CO2.Media was decanted from the plate, cells were washed 1x in PBS. 400 μL trypsin (EDTA) per well was added, and the cells were incubated for 2 to 3 minutes. […] The cytometer readout was normalized and the potency of each compound was evaluated with IC50 calculated with XLfit software.

Chain of Receptor tyrosine-protein kinase erbB-2 (P04626 whole entry): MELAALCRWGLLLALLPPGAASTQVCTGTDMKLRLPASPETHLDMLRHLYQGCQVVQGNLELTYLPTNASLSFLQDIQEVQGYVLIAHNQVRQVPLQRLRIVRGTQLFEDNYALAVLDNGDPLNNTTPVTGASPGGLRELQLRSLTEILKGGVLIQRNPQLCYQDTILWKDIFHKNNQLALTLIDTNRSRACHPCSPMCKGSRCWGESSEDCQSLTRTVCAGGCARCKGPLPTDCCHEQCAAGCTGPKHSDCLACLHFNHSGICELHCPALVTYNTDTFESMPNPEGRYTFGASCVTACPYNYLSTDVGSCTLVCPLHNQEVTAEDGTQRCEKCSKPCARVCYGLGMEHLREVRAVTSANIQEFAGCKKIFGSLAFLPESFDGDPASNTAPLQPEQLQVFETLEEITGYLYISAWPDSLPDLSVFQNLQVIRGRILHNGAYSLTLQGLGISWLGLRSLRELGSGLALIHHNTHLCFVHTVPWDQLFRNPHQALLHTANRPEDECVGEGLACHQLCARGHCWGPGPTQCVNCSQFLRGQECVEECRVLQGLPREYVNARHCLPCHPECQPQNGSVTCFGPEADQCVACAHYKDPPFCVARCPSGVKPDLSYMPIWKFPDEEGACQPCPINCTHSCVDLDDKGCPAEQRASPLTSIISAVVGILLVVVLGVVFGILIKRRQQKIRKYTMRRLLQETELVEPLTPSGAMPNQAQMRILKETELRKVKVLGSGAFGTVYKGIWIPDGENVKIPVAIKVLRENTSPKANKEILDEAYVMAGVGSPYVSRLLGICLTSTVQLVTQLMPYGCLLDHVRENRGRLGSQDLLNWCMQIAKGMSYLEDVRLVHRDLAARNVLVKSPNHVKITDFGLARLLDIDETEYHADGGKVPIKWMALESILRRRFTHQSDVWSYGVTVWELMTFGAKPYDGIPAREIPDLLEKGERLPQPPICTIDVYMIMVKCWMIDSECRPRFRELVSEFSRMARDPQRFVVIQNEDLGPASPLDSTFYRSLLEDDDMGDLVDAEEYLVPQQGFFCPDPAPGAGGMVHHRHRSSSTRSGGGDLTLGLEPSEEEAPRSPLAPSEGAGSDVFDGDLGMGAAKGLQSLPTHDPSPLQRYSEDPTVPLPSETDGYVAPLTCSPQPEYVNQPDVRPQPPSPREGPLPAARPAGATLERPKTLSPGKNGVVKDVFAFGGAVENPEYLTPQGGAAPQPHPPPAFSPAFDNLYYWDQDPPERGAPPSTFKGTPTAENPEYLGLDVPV

IC50: 117 nM
Structure (SMILES): CC(C)C[C@H](NC(=O)[C@H](Cc1ccccc1)NC(=O)c1cnccn1)B1O[C@H]2C[C@H]3C[C@H](C3(C)C)[C@@]2(CC(=O)N2CCC(CCn3ccc4cc(N(C(=N)c5cc(C(C)C)c(O)cc5O)C(N)=O)ccc43)CC2)O1 [US10117944, Compound SDC-TRAP-0245]
